Assay results taken from patent US9156796B2, “Benzoimidazole-carboxylic acid amide derivatives as APJ receptor modulators” (SANOFI, priority 2013, dated 2015).

Target: T1, human apelin receptor (Homo sapiens, UniProt P35414)
T1 construct: expressed in transfected cells
T1 sequence (P35414 1-380): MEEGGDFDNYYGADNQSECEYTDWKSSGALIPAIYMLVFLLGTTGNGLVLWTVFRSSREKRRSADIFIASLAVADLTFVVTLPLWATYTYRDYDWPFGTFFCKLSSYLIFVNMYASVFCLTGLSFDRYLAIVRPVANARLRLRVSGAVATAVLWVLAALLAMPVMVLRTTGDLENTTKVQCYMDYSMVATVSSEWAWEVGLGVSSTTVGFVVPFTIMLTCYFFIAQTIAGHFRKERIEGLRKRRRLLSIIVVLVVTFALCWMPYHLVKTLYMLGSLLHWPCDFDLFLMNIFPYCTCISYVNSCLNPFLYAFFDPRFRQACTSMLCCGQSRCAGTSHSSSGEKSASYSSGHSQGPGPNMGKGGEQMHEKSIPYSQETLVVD
Assay: Determination of agonism on the human apelin receptor by a calcium fluorescence assay (FLIPR)
Format: cell-based
Settings: HEK293 cells stably transfected with human apelin receptor and Giaq protein, Fluo-4 calcium fluorescence, read-out: EC50 (APJ agonism)
In short: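 HEK293 cells stably co-expressing human apelin receptor and promiscuous Giaq, loaded 1 h at 37 °C with Fluo-4 (4 μM) in probenecid-containing Hepes buffer, pH 7.4. Compounds, at least 7 concentrations in triplicate, added in FLIPR Tetra; peak calcium fluorescence normalized to 1 μM apelin-13 as 100% to derive EC50.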

SMILES | EC50 [µM]
CCC(CC)n1c(Cc2cccs2)nc2cc(C(=O)N[C@@H](CC(C)C)C(=O)N3CCN(C4CCCCC4)CC3)ccc21 [Example 318, 1-(1-Ethyl-propyl)-2-thiophen-2-ylmethyl-1H-benzoimidazole-5-carboxylic acid [(S)-1-(4-cyclohexyl-piperazine-1-carbonyl)-3-methyl-butyl]-amide] | 2.86
CCC(CC)n1c(Cc2cccs2)nc2cc(C(=O)N[C@@H](CC(C)C)C(=O)NCCCN3CCC(C)CC3)ccc21 [Example 320, 1-(1-Ethyl-propyl)-2-thiophen-2-ylmethyl-1H-benzoimidazole-5-carboxylic acid {(S)-3-methyl-1-[3-(4-methyl-piperidin-1-yl)-propylcarbamoyl]-butyl}-amide] | 0.386
CCC(CC)n1c(Cc2cccs2)nc2cc(C(=O)N[C@@H](CC(C)C)C(=O)N3CCN(C4CCCC4)CC3)ccc21 [Example 321, 1-(1-Ethyl-propyl)-2-thiophen-2-ylmethyl-1H-benzoimidazole-5-carboxylic acid [(S)-1-(4-cyclopentyl-piperazine-1-carbonyl)-3-methyl-butyl]-amide] | 1.53
CCC(CC)n1c(Cc2cccs2)nc2cc(C(=O)N[C@@H](CC(C)C)C(=O)N3CCCN(Cc4ccccc4)CC3)ccc21 [Example 323, 1-(1-Ethyl-propyl)-2-thiophen-2-ylmethyl-1H-benzoimidazole-5-carboxylic acid [(S)-1-(4-benzyl-[1,4]diazepane-1-carbonyl)-3-methyl-butyl]-amide] | 6.75
CCC(CC)n1c(Cc2cccs2)nc2cc(C(=O)N[C@@H](CC(C)C)C(=O)NC3CCN(C)CC3)ccc21 [Example 327, 1-(1-Ethyl-propyl)-2-thiophen-2-ylmethyl-1H-benzoimidazole-5-carboxylic acid [(S)-3-methyl-1-(1-methyl-piperidin-4-ylcarbamoyl)-butyl]-amide] | 0.111
CCC(CC)n1c(Cc2cccs2)nc2cc(C(=O)N[C@@H](CC(C)C)C(=O)NC3CCN(CCc4ccc(OC)cc4)CC3)ccc21 [Example 328, 1-(1-Ethyl-propyl)-2-thiophen-2-ylmethyl-1H-benzoimidazole-5-carboxylic acid ((S)-1-{1-[2-(4-methoxy-phenyl)-ethyl]-piperidin-4-ylcarbamoyl}-3-methyl-butyl)-amide] | 1.27
CCC(CC)n1c(Cc2cccs2)nc2cc(C(=O)N[C@@H](CC(C)C)C(=O)NCC3CN(Cc4ccccc4)CCO3)ccc21 (stereo partly drawn) [Example 330, 1-(1-Ethyl-propyl)-2-thiophen-2-ylmethyl-1H-benzoimidazole-5-carboxylic acid {(S)-1-[(4-benzyl-morpholin-2-ylmethyl)-carbamoyl]-3-methyl-butyl}-amide] | 2.48
CCCCN1CCC(CNC(=O)[C@H](CC(C)C)NC(=O)c2ccc3c(c2)nc(Cc2cccs2)n3C(CC)CC)CC1 [Example 331, 1-(1-Ethyl-propyl)-2-thiophen-2-ylmethyl-1H-benzoimidazole-5-carboxylic acid {(S)-1-[(1-butyl-piperidin-4-ylmethyl)-carbamoyl]-3-methyl-butyl}-amide] | 0.267
CCC(CC)n1c(Cc2cccs2)nc2cc(C(=O)N[C@@H](CC(C)C)C(=O)NCCCN3CC(C)CC(C)C3)ccc21 (stereo partly drawn) [Example 332, 1-(1-Ethyl-propyl)-2-thiophen-2-ylmethyl-1H-benzoimidazole-5-carboxylic acid {(S)-1-[3-(3,5-dimethyl-piperidin-1-yl)-propylcarbamoyl]-3-methyl-butyl}-amide] | 0.692
CCC(CC)n1c(Cc2cccs2)nc2cc(C(=O)N[C@@H](CC(C)C)C(=O)N3CCC(N4CCOCC4)CC3)ccc21 [Example 334, 1-(1-Ethyl-propyl)-2-thiophen-2-ylmethyl-1H-benzoimidazole-5-carboxylic acid [(S)-3-methyl-1-(4-morpholin-4-yl-piperidine-1-carbonyl)-butyl]-amide] | 0.412
CCC(CC)n1c(Cc2cccs2)nc2cc(C(=O)N[C@@H](CC(C)C)C(=O)N3CCC(N4CCCCCC4)CC3)ccc21 [Example 335, 1-(1-Ethyl-propyl)-2-thiophen-2-ylmethyl-1H-benzoimidazole-5-carboxylic acid [(S)-1-(4-azepan-1-yl-piperidine-1-carbonyl)-3-methyl-butyl]-amide] | 0.384
CCC(CC)n1c(Cc2cccs2)nc2cc(C(=O)N[C@@H](CC(C)C)C(=O)N3CCC(N(CC)Cc4ccccc4)CC3)ccc21 [Example 336, 1-(1-Ethyl-propyl)-2-thiophen-2-ylmethyl-1H-benzoimidazole-5-carboxylic acid {(S)-1-[4-(benzyl-ethyl-amino)-piperidine-1-carbonyl]-3-methyl-butyl}-amide] | 1.26
CCC(CC)n1c(Cc2cccs2)nc2cc(C(=O)N[C@@H](CC(C)C)C(=O)NC3CCN(CC(C)C)CC3)ccc21 [Example 337, 1-(1-Ethyl-propyl)-2-thiophen-2-ylmethyl-1H-benzoimidazole-5-carboxylic acid [(S)-1-(1-isobutyl-piperidin-4-ylcarbamoyl)-3-methyl-butyl]-amide] | 0.331
CCC(CC)n1c(Cc2cccs2)nc2cc(C(=O)N[C@@H](CC(C)C)C(=O)NC3CCN(CCc4ccccc4)CC3)ccc21 [Example 338, 1-(1-Ethyl-propyl)-2-thiophen-2-ylmethyl-1H-benzoimidazole-5-carboxylic acid [(S)-3-methyl-1-(1-phenethyl-piperidin-4-ylcarbamoyl)-butyl]-amide] | 1.59
CCC(CC)n1c(Cc2cccs2)nc2cc(C(=O)N[C@@H](CC(C)C)C(=O)NCCCN3CCCC(C)C3)ccc21 (stereo partly drawn) [Example 339, 1-(1-Ethyl-propyl)-2-thiophen-2-ylmethyl-1H-benzoimidazole-5-carboxylic acid {(S)-3-methyl-1-[3-(3-methyl-piperidin-1-yl)-propylcarbamoyl]-butyl}-amide] | 0.444
CCC(CC)n1c(Cc2cccs2)nc2cc(C(=O)N[C@@H](CC(C)C)C(=O)NC3CCN(CC)CC3)ccc21 [Example 340, 1-(1-Ethyl-propyl)-2-thiophen-2-ylmethyl-1H-benzoimidazole-5-carboxylic acid [(S)-1-(1-ethyl-piperidin-4-ylcarbamoyl)-3-methyl-butyl]-amide] | 0.185
CCC(CC)n1c(Cc2cccs2)nc2cc(C(=O)N[C@@H](CC(C)C)C(=O)NCCCN3CCN(Cc4ccccc4)CC3)ccc21 [Example 341, 1-(1-Ethyl-propyl)-2-thiophen-2-ylmethyl-1H-benzoimidazole-5-carboxylic acid {(S)-1-[3-(4-benzyl-piperazin-1-yl)-propylcarbamoyl]-3-methyl-butyl}-amide] | 0.918

More lines, now with the values ahead:

EC50 [µM] | SMILES
1.52 | CCC(CC)n1c(Cc2cccs2)nc2cc(C(=O)N[C@@H](CC(C)C)C(=O)NC3CCN(Cc4ccccc4)C3)ccc21 (stereo partly drawn) [Example 319, 1-(1-Ethyl-propyl)-2-thiophen-2-ylmethyl-1H-benzoimidazole-5-carboxylic acid [(S)-1-(1-benzyl-pyrrolidin-3-ylcarbamoyl)-3-methyl-butyl]-amide]
0.244 | CCC(CC)n1c(Cc2cccs2)nc2cc(C(=O)N[C@@H](CC(C)C)C(=O)N3CC[C@H](N(C)C)C3)ccc21 [Example 322, 1-(1-Ethyl-propyl)-2-thiophen-2-ylmethyl-1H-benzoimidazole-5-carboxylic acid [(S)-1-((S)-3-dimethylamino-pyrrolidine-1-carbonyl)-3-methyl-butyl]-amide]
16.8 | CCC(CC)n1c(Cc2cccs2)nc2cc(C(=O)N[C@@H](CC(C)C)C(=O)N3CCCN(Cc4ccc(F)cc4)CC3)ccc21 [Example 324, 1-(1-Ethyl-propyl)-2-thiophen-2-ylmethyl-1H-benzoimidazole-5-carboxylic acid {(S)-1-[4-(4-fluoro-benzyl)-[1,4]diazepane-1-carbonyl]-3-methyl-butyl}-amide]
4.41 | CCC(CC)n1c(Cc2cccs2)nc2cc(C(=O)N[C@@H](CC(C)C)C(=O)N3C[C@H]4C[C@@H]3CN4Cc3ccccc3)ccc21 [Example 325, 1-(1-Ethyl-propyl)-2-thiophen-2-ylmethyl-1H-benzoimidazole-5-carboxylic acid [(S)-1-((1R,4R)-5-benzyl-2,5-diaza-bicyclo[2.2.1]heptane-2-carbonyl)-3-methyl-butyl]-amide]
16.4 | CCC(CC)n1c(Cc2cccs2)nc2cc(C(=O)N[C@@H](CC(C)C)C(=O)N3CC4CC3CN4c3cccc(F)c3)ccc21 (stereo partly drawn) [Example 326, 1-(1-Ethyl-propyl)-2-thiophen-2-ylmethyl-1H-benzoimidazole-5-carboxylic acid {(S)-1-[5-(3-fluoro-phenyl)-2,5-diaza-bicyclo[2.2.1]heptane-2-carbonyl]-3-methyl-butyl}-amide]
0.362 | CCC(CC)n1c(Cc2cccs2)nc2cc(C(=O)N[C@@H](CC(C)C)C(=O)N3CCC(N(CC)CC)C3)ccc21 (stereo partly drawn) [Example 329, 1-(1-Ethyl-propyl)-2-thiophen-2-ylmethyl-1H-benzoimidazole-5-carboxylic acid [(S)-1-(3-diethylamino-pyrrolidine-1-carbonyl)-3-methyl-butyl]-amide]
27.3 | CCC(CC)n1c(Cc2cccs2)nc2cc(C(=O)N[C@@H](CC(C)C)C(=O)Nc3cccc(N4CCOCC4)c3)ccc21 [Example 333, 1-(1-Ethyl-propyl)-2-thiophen-2-ylmethyl-1H-benzoimidazole-5-carboxylic acid [(S)-3-methyl-1-(3-morpholin-4-yl-phenylcarbamoyl)-butyl]-amide]
